Results published in ChEMBL document CHEMBL1201862, “PubChem BioAssay data set” (2004).
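Five concentrations, 48 hours, 96-well plates. GI50 marks 50% less growth.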 Activity calls are given as the source filed them. Rule as the data show it: active = GI50 up to about 1.1 µM and inactive = higher.

Legend:
Assay in all cases: growth of human tumour cells (NCI), 48 h
SN12C = system: SN12C
HCC 2998 = system: HCC 2998
NCI/ADR-RES = system: NCI/ADR-RES
786-0 = system: 786-0
CAKI-1 = system: CAKI-1
OVCAR-8 = system: OVCAR-8
OVCAR-4 = system: OVCAR-4
SK-MEL-2 = system: SK-MEL-2
RPMI-8226 = system: RPMI-8226
UACC-62 = system: UACC-62
T47D = system: T47D
UACC-257 = system: UACC-257
EKVX = system: EKVX
NCI-H522 = system: NCI-H522
K562 = system: K562
PC-3 = system: PC-3
DU-145 = system: DU-145
A498 = system: A498
HCT-15 = system: HCT-15
LOX IMVI = system: LOX IMVI

Compound | GI50 (SN12C) | GI50 (HCC 2998) | GI50 (NCI/ADR-RES) | GI50 (786-0) | GI50 (CAKI-1) | GI50 (OVCAR-8) | GI50 (OVCAR-4) | GI50 (SK-MEL-2) | GI50 (RPMI-8226) | GI50 (UACC-62) | GI50 (T47D) | GI50 (UACC-257) | GI50 (EKVX) | GI50 (NCI-H522) | GI50 (K562) | GI50 (PC-3) | GI50 (DU-145) | GI50 (A498) | GI50 (HCT-15) | GI50 (LOX IMVI)
COC12C=CC(CC1)C(C)(C)C2=O (stereo not drawn) | > 100 µM (inactive) | > 100 µM (inactive) | > 100 µM (inactive) | > 100 µM (inactive) | > 100 µM (inactive) | > 100 µM (inactive) | > 100 µM (inactive) | > 100 µM (inactive) | > 100 µM (inactive) | > 100 µM (inactive) | > 100 µM (inactive) | > 100 µM (inactive) | > 100 µM (inactive) | > 100 µM (inactive) | > 100 µM (inactive) | > 100 µM (inactive) | > 100 µM (inactive) | > 100 µM (inactive) | > 100 µM | –
CN(C)CCNS(=O)(=O)c1ccc(N)cc1 | > 100 µM (inactive) | > 100 µM (inactive) | > 100 µM (inactive) | > 100 µM (inactive) | > 100 µM (inactive) | > 100 µM (inactive) | > 100 µM (inactive) | 18 µM (inactive) | > 100 µM (inactive) | > 100 µM (inactive) | > 100 µM (inactive) | > 100 µM (inactive) | > 100 µM (inactive) | > 100 µM (inactive) | > 100 µM (inactive) | 19.9 µM (inactive) | > 100 µM (inactive) | > 100 µM (inactive) | > 100 µM | –
N#Cc1c(-c2ccccc2)[nH]c2ccc(Cl)cc2c1=O | > 100 µM (inactive) | > 100 µM (inactive) | 92.9 µM (inactive) | 30.5 µM (inactive) | 1.62 µM (inactive) | 86.9 µM (inactive) | > 100 µM (inactive) | 16.7 µM (inactive) | > 100 µM (inactive) | 57.3 µM (inactive) | > 100 µM (inactive) | > 100 µM (inactive) | > 100 µM (inactive) | 26.4 µM (inactive) | > 100 µM (inactive) | > 100 µM (inactive) | > 100 µM (inactive) | – | > 100 µM | > 100 µM (inactive)
NC(=S)Nc1ccc(S(=O)(=O)Nc2ccc(S(N)(=O)=O)cc2)cc1 | > 100 µM (inactive) | – | > 100 µM (inactive) | > 100 µM (inactive) | > 100 µM (inactive) | > 100 µM (inactive) | > 100 µM (inactive) | > 100 µM (inactive) | > 100 µM (inactive) | > 100 µM (inactive) | > 100 µM (inactive) | > 100 µM (inactive) | > 100 µM (inactive) | > 100 µM (inactive) | > 100 µM (inactive) | > 100 µM (inactive) | > 100 µM (inactive) | > 100 µM (inactive) | > 100 µM | > 100 µM (inactive)
COC(=O)c1ccc(/C=C2\CCc3ccccc3C2=O)cc1 | > 100 µM (inactive) | > 100 µM (inactive) | > 100 µM (inactive) | > 100 µM (inactive) | > 100 µM (inactive) | > 100 µM (inactive) | > 100 µM (inactive) | – | > 100 µM (inactive) | > 100 µM (inactive) | > 100 µM (inactive) | > 100 µM (inactive) | > 100 µM (inactive) | 69.7 µM (inactive) | > 100 µM (inactive) | > 100 µM (inactive) | > 100 µM (inactive) | 34.4 µM (inactive) | > 100 µM | > 100 µM (inactive)
CCOC(=O)C1(C(=O)OCC)[C@@H](c2ccccc2)C2=NO[C@@H]3CCC[C@H]1[C@H]23 | > 100 µM (inactive) | 18 µM (inactive) | 56.9 µM (inactive) | 89.3 µM (inactive) | 44.9 µM (inactive) | 58.9 µM (inactive) | 43 µM (inactive) | 55.5 µM (inactive) | 23.5 µM (inactive) | 8.26 µM (inactive) | 20.8 µM (inactive) | 24 µM (inactive) | 34.7 µM (inactive) | 42.1 µM (inactive) | 52.5 µM (inactive) | 60.1 µM (inactive) | > 100 µM (inactive) | – | 56 µM | 81.1 µM (inactive)
CCOC(=O)C(O)(CC1=NC(C(=O)OC)(C(=O)OC)C(c2cccc(C=O)c2)O1)C(=O)OCC (stereo not drawn) | > 100 µM (inactive) | > 100 µM (inactive) | > 100 µM (inactive) | > 100 µM (inactive) | > 100 µM (inactive) | > 100 µM (inactive) | > 100 µM (inactive) | > 100 µM (inactive) | > 100 µM (inactive) | > 100 µM (inactive) | > 100 µM (inactive) | > 100 µM (inactive) | > 100 µM (inactive) | – | > 100 µM (inactive) | > 100 µM (inactive) | > 100 µM (inactive) | > 100 µM (inactive) | > 100 µM | > 100 µM (inactive)
